Patent US20240382499A1, “INDUCERS OF SENESCENCE, IN COMBINATION WITH A SELECTIVE DEATH RECEPTOR 5 (DR5) AGONIST, FOR USE IN A METHOD OF TREATING CANCER” (Stichting Het Nederlands Kanker Instituut-Antoni van …, priority 2021, published 2024)

How the values were obtained:
[1] = tested on: Alisertib induced senescent and proliferating A549, H2030, H358, HCT116, MDA-MB-231 and MCF-7 cells; test: Viability of alisertib-induced senescent versus proliferating cancer cell line panel (CellTiter-Blue dose response, Incucyte, colony formation); type: cell-based; conditions: alisertib-induced senescent cells, 12-well plate
Experimental: FIG. 2: (A) Western blot analysis of DR4, DR5, cFLIP in A549 cells treated with different senescence inducers for 1 week. VINC served as loading control. (B) A549 cells were firstly treated with 0.5 μM alisertib for 7 days to induce senescence. Afterwards, the senescent cells were suspended from alisertib, re-seeded in a 96-well plate then switched to 200 ng/ml recombinant Lz-TRAIL. The growth curves were measured by Incucyte cell proliferation assay. (C) Alisertib induced senescent and proliferating A549, H2030, H358, HCT116, MDA-MB-231 and MCF-7 cells were seeded into a 384-well plate and treated with Lz-TRAIL for 120 hrs. Cell viability were measured using CellTiter-Blue to generate dose response curve. (D) Senescence associated beta-galactosidase (SA-β-gal) staining in a cell line panel after treated with 0.5 μM alisertib for one week. (E) Cell viability […] was assessed by colony formation assay in the cell line panel. The cells were firstly treated with 0.5 μM alisertib for 7 days to induce senescence. […]
FIG. 3: (A) Human NF-kB pathway protein array analysis on the senescent A549 cells generated with 0.5 μM alisertib for 7 days. […] (C) Cell viability was assessed by colony formation assay in the A549 cells lentiviral shRNAs against DR4 or DR5. […] Cell viability were measured using CellTiter-Blue to generate dose response curve.

[2] = tested on: Hep1 liver cancer cells; test: Tumor growth of Hep1 xenografts in Balb/c nude mice; type: in vivo; conditions: Hep1 xenograft; 30 mg/kg alisertib oral gavage, 5 μg conatumumab intraperitoneal, week days
Experimental: (§1) FIG. 4: (A) Tumor growth of Hep1 parental cells in the flanks of Balb/c nude mice subcutaneously injected with 1*10^7 cells. When tumors reached approximately 200 mm^3, assigned to either control, 30 mg/kg alisertib (oral gavage), 5 μg conatumumab (intraperitoneal injection) and the combination. The drugs were administrated during week days and suspended during the weekend. (B) Tumor growth of A549 parental cells in the flanks of Balb/c nude mice subcutaneously injected with 5*10^6 cells. When tumors reached approximately 200 mm3, assigned to either control, 30 mg/kg alisertib (oral gavage), 10 μg conatumumab (intraperitoneal injection) and the combination. The drugs were administrated during week days and suspended during the weekend. (C-E) Cell viability was assessed by colony formation assay in the A549 and Hep1 cells. The cells were firstly treated with different senescence inducers for 7 days to induce senescence. Afterwards, the senescent cells were suspended from the senescence inducers then re-seeded in a 12-well plate and switched to conatumumab or Lz-TRAIL treatment for 5 days. Proliferating cells were taken as a control. At the end of assay, cells were fixed, stained, and photographed.
(§2) To test the treatment in vivo, we engrafted Hep1 liver cancer cells and A549 lung cancer cells into immunodeficient nude mice. […]

[3] = tested on: A549 lung cancer cells; test: Tumor growth of A549 xenografts in Balb/c nude mice; type: in vivo; conditions: A549 xenograft; 30 mg/kg alisertib oral gavage, 10 μg conatumumab intraperitoneal, week days
Experimental: as §1, §2

[4] = tested on: TNFRSF10B (DR5), DR4; test: RNA sequencing of a senescent cell line panel, death receptor expression; type: cell-based; conditions: data not shown
Experimental: RNA sequencing was performed on A549 cells treated with 0.5 alisertib μM for 1 week, and followed by gene set enrichment analysis (GSEA) of alisertib treated cells versus untreated control for multiple independent NF-KB signaling gene sets. (B) Real-time PCR analysis of DR4, DR5, cFLIP, TRAIL in A549 cells treated with 0.5 μM alisertib, 100 nM CFI-400945 and 2 μM Etoposide. GAPDH served as control.

SMILES	senolytic effect in cell line panel (colony formation), TRAIL compared with ABT-263 [1]	tumor growth [2]	tumor growth [3]	DR4 expression in induced senescent cells [4]	TNFRSF10B (DR5) expression in induced senescent cells [4]
CC1(C)CCC(c2ccc(Cl)cc2)=C(CN2CCN(c3ccc(C(=O)NS(=O)(=O)c4ccc(N[C@H](CCN5CCOCC5)CSc5ccccc5)c(S(=O)(=O)C(F)(F)F)c4)cc3)CC2)C1 [ABT-263]	resistant				
COc1cc(Nc2ncc3c(n2)-c2ccc(Cl)cc2C(c2c(F)cccc2OC)=NC3)ccc1C(=O)O [alisertib, 4-[[9-chloro-7-(2-fluoro-6-methoxyphenyl)-5H-pyrimido[5,4-d][2]benzazepin-2-yl]amino]-2-methoxybenzoic acid]		limited tumor growth inhibition	limited tumor growth inhibition	not DR4	upregulated
COc1cc([C@@H]2c3cc4c(cc3[C@@H](O[C@@H]3O[C@@H]5CO[C@@H](C)O[C@H]5[C@H](O)[C@H]3O)[C@H]3COC(=O)[C@H]23)OCO4)cc(OC)c1O [etoposide, (5S,5aR,8aR,9R)-5-[[(2R,4aR,6R,7R,8R,8aS)-7,8-dihydroxy-2-methyl-4,4a,6,7,8,8a-hexahydropyrano[3,2-d][1,3]dioxin-6-yl]oxy]-9-(4-hydroxy-3,5-dimethoxyphenyl)-5a,6,8a,9-tetrahydro-5H-[2]benzofuro[6,5-f][1,3]benzodioxol-8-one]				not DR4	upregulated
